Data taken from patent publication US5102884A, “Substituted benzoylurea compounds or their salts, processes for their production and antitumour compositions containing them” (Ishihara Sangyo Kaisha Ltd., priority 1989, dated 1992).

Tests used:
[1] = Solubility to a non-aqueous solvent, Test Example 3; assay type: physicochemical; settings: 18° to 20° C.; for Solubility, Medium chain triglyceride: medium chain triglyceride (ODO)
Procedure: A stirring magnet was put into a 10 ml or 100 ml egg plant flask equipped with a stopper, and 50 mg of a test compound was introduced into this flask. Further, a suitable amount of a desired solvent was introduced thereinto, and the solubility was determined.

P-388 leukemia [2] = assay: Antitumour activity, Test Example 1 (intraperitoneally transplanted--intraperitoneally administered); assay type: in vivo, BDF1 mouse; settings: i.p., days 1 and 8, mortality observed 30 days, saline control = 0%; for ILS at 100 mg/kg: 100 mg/kg/day active ingredient; for ILS at 50 mg/kg: 50 mg/kg/day active ingredient; for ILS at 6.25 mg/kg: 6.25 mg/kg/day active ingredient
Procedure: 1×10^6 of P-388 leukemia cells per mouse were intraperitoneally transplanted into BDF1 mouse. […] The increase life span of each group was determined on such basis that the medium survival time of a control group to which physiological saline was administered was regarded to be 0% of increase life span (ILS). […] | (Note) *Increase life span is calculated by the following equation: | Increase life span % (ILS) =- | [drawing 18]

P-388 leukemia [3] = assay: Antitumour activity, Test Example 2 (intraperitoneally transplanted--intravenously injected); assay type: in vivo, BDF1 mouse; settings: 10 mg/kg (active ingredient mg/kg/day), i.v. from the tail, days 1 and 8; fatty emulsion (Formulation Example 10); saline control = 0%
Procedure: 1×10^6 of P-388 leukemia cells per mouse were intraperitoneally transplanted to BDF1 mouse. Each formulation (formulated in accordance with the below-mentioned Formulation Example 10) was intravenously injected from the tail on days 1 and 8 after the transplantation.
The increase life span (ILS, %) of each treated group was determined on such basis that the median survival time of a control group to which a physiolosical saline was administered was regarded to be 0% of increase life span (ILS). In the cases where Compounds No. 1 and No. 11 were administered at a dose (active ingredient mg/kg/day) of 10 mg/kg, ILS (%) was 46 and 27, respectively. (Note) * The increase life span was calculated in the
same manner as in Test Example 1.

[4] = Mus musculus, P388, ip, 720 h, 25 mg/kg/day active ingredient, read-out: Increase life span (ILS)
[5] = Mus musculus, P388, ip, 720 h, read-out: Increase life span (ILS)
[6] = 12.5 mg/kg/day active ingredient
[7] = Mus musculus, P388, ip, 720 h, 12.5 mg/kg/day active ingredient, read-out: Increase life span (ILS)

| SMILES | ILS at 25 mg/kg (P-388 leukemia [2]; [4]) [%] | ILS at 12.5 mg/kg (P-388 leukemia [2]; [7]) [%] | ILS at 50 mg/kg (P-388 leukemia [2]; [5]) [%] | other results |
| --- | --- | --- | --- | --- |
| CCN(CC)c1ccccc1C(=O)NC(=O)Nc1ccc(Oc2ncc(Br)cn2)c(C)c1 [Compound 33] | 49 | – | – | Solubility, Soybean oil [1]: at least 13.6% |
| CN(C)c1ccccc1C(=O)NC(=O)Nc1ccc(Oc2ncc(Cl)cn2)c([N+](=O)[O-])c1 [Compound 36] | – | – | – | ILS at 100 mg/kg (P-388 leukemia [2]; [5]): 68% |
| Cc1cc(NC(=O)NC(=O)c2ccccc2N(C)C)ccc1Oc1ncc(Br)cn1.Cl [Compound 2, N-[4-(5-bromo-2-pyrimidinyloxy)-3methylphenyl]-N'-[2-(dimethylamino)benzoyl]urea hydrochloride] | – | – | – | Increase life span (ILS) (P-388 leukemia [2]; [6]): 94%; Increase life span (ILS) (P-388 leukemia [2]; 25 mg/kg/day active ingredient): 206% |
| Cc1cc(NC(=O)NC(=O)c2c(F)cccc2N(C)C)ccc1Oc1ncc(Br)cn1 [Compound 3] | 150 | 50 | – | – |
| CCCCCCCCC(=O)Nc1ccccc1C(=O)NC(=O)Nc1ccc(Oc2ncc(Br)cn2)c(C)c1 [Compound 51] | – | – | 184 | – |
| Cc1cc(NC(=O)NC(=O)c2ccccc2N(C)C)ccc1Oc1ncc(Cl)cn1 [Compound 11, N-[4-(5-chloro-2-pyrimidinyloxy)-3methylphenyl]-N'-[2-(dimethylamino)benzoyl]urea] | 99 | – | 132 | Solubility, Medium chain triglyceride [1]: 1.5-1.8%; Solubility, Soybean oil [1]: 0.15-0.16%; Increase life span (ILS) (P-388 leukemia [3]): 27% |
| CN(C)c1ccccc1C(=O)NC(=O)Nc1ccc(Oc2ncc(Cl)cn2)c(C(F)(F)F)c1 [Compound 10, N-[4-(5-chloro-2-pyrimidinyloxy)-3-trifluoromethylphenyl]-N'-[2-(dimethylamino)benzoyl]urea] | – | 39 | – | – |
| CN(C)c1cccc(F)c1C(=O)NC(=O)Nc1ccc(Oc2ncc(Br)cn2)c(Cl)c1 [Compound 4] | – | – | 135 | – |
| Cc1cc(NC(=O)NC(=O)c2ccccc2N2CCOCC2)ccc1Oc1ncc(Br)cn1 [Compound 34, N-[4-(5-bromo-2-pyrimidinyloxy)-3-methylphenyl]-N'-(2-morpholinobenzoyl)urea] | – | – | – | ILS at 6.25 mg/kg (P-388 leukemia [2]; [5]): 49% |
| CN(C)c1ccccc1C(=O)NC(=O)Nc1ccc(Oc2ncc(Br)cn2)c(C(F)(F)F)c1 [Compound 9, N-[4-(5-bromo-pyrimidinyloxy)-3-trifluoromethylphenyl]-N'-[2(dimethylamino)benzoyl]urea] | – | 80 | – | – |
| CN(C)c1ccccc1C(=O)NC(=O)Nc1ccc(Oc2ncc(Br)cn2)c([N+](=O)[O-])c1 [Compound 13] | – | – | 27 | – |
| Cc1cc(NC(=O)NC(=O)c2ccccc2N)ccc1Oc1ncc(Br)cn1 [Compound 27, N-(2-aminobenzoyl)-N'-[4-(5-bromo-2-pyrimidinyloxy)-3-methylphenyl]urea] | 160 | 126 | – | – |
| COc1cc(NC(=O)NC(=O)c2ccccc2N(C)C)ccc1Oc1ncc(Cl)cn1 [Compound 35] | – | – | – | ILS at 100 mg/kg (P-388 leukemia [2]; [5]): 27%; ILS at 200 mg/kg (P-388 leukemia [2]; Mus musculus, P388, ip, 720 h, 200 mg/kg/day active ingredient, read-out: Increase life span (ILS)): 53% |
| Cc1cc(NC(=O)NC(=O)c2ccccc2N(C)C)ccc1Oc1ncc(Br)cn1 [Compound 1, N-[4-(5-bromo-2-pyrimidinyloxy)-3methylphenyl]-N'-[2-(dimethylamino)benzoyl]urea] | – | – | – | Solubility, Medium chain triglyceride [1]: 2.1-2.3%; Solubility, Soybean oil [1]: 0.46-0.49%; Increase life span (ILS) (P-388 leukemia [2]; [6]): 126%; Increase life span (ILS) (P-388 leukemia [2]; 25 mg/kg/day active ingredient): 183%; Increase life span (ILS) (P-388 leukemia [3]): 46% |
| CC(=O)N(C)c1ccccc1C(=O)NC(=O)Nc1ccc(Oc2ncc(Br)cn2)c(C)c1 [Compound 52] | – | 139 | – | ILS at 6.25 mg/kg (P-388 leukemia [2]; [5]): 39% |
| CCCC(=O)Nc1ccccc1C(=O)NC(=O)Nc1ccc(Oc2ncc(Br)cn2)c(C)c1 [Compound 50] | 49 | – | 150 | – |
| Cc1cc(NC(=O)NC(=O)c2ccccc2N(S(C)(=O)=O)S(C)(=O)=O)ccc1Oc1ncc(Br)cn1 [Compound 54] | – | – | 49 | – |
| Nc1ccccc1C(=O)NC(=O)Nc1ccc(Oc2ncc(Br)cn2)c(Cl)c1 [Compound 26, N-(2-aminobenzoyl)-N'-[4-(5-bromo-2-pyrimidinyloxy)-3-chlorophenyl]urea] | > 137 | 93 | – | – |
| CC(=O)Nc1ccccc1C(=O)NC(=O)Nc1ccc(Oc2ncc(Br)cn2)c(C)c1 [Compound 49, N-[2-(acetylamino]benzoyl]-N'-[4-(5-bromo-2-pyrimidinyloxy)-3-methylphenyl]urea] | 59 | 39 | – | – |
